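96-well plates; 48 h exposure; 5 concentrations. Endpoints by linear interpolation between flanking doses. Not reached: highest tested concentration assigned. At the GI50, growth is halved.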 Activity calls are given as the source filed them. Rule as the data show it: active = GI50 up to about 1.1 µM and inactive = higher.
Key:
Assay in all cases: NCI tumour cell line growth inhibition, 48 h
NCI-H226 = test system: NCI-H226
RXF 393 = test system: RXF 393
NCI-H460 = test system: NCI-H460
OVCAR-4 = test system: OVCAR-4
CAKI-1 = test system: CAKI-1
UO-31 = test system: UO-31
SF-539 = test system: SF-539
SF-268 = test system: SF-268
A498 = test system: A498
OVCAR-3 = test system: OVCAR-3
SK-MEL-5 = test system: SK-MEL-5
NCI-H23 = test system: NCI-H23
NCI/ADR-RES = test system: NCI/ADR-RES
MCF7 = test system: MCF7
IGROV-1 = test system: IGROV-1
SN12C = test system: SN12C
SF-295 = test system: SF-295
RPMI-8226 = test system: RPMI-8226
UACC-257 = test system: UACC-257
TK-10 = test system: TK-10
HOP-62 = test system: HOP-62
ACHN = test system: ACHN
786-0 = test system: 786-0
CCRF-CEM = test system: CCRF-CEM
OVCAR-5 = test system: OVCAR-5
SW-620 = test system: SW-620
EKVX = test system: EKVX
HT-29 = test system: HT-29
BT-549 = test system: BT-549
OVCAR-8 = test system: OVCAR-8
SK-MEL-28 = test system: SK-MEL-28
SNB-19 = test system: SNB-19
LOX IMVI = test system: LOX IMVI
SK-OV-3 = test system: SK-OV-3
KM12 = test system: KM12
A549 = test system: A549
HCC 2998 = test system: HCC 2998
HL-60 = test system: HL-60
Malme-3M = test system: Malme-3M
DU-145 = test system: DU-145
T47D = test system: T47D
MDA-N = test system: MDA-N
COLO 205 = test system: COLO 205
MOLT-4 = test system: MOLT-4
SNB-75 = test system: SNB-75
K562 = test system: K562
UACC-62 = test system: UACC-62
MDA-MB-435 = test system: MDA-MB-435
MDA-MB-231 = test system: MDA-MB-231
HCT-116 = test system: HCT-116
HCT-15 = test system: HCT-15
SR = test system: SR
U-251 = test system: U-251

Question: With `CCn1c2ccccc2c2ccc(C3C(C(=O)OC)=C(C)NC(C)=C3C(=O)OC)cc21` as the molecule, how does the GI50 (NCI-H226) read?
Answer: Its GI50 is 33 µM (inactive).

Question: What about the GI50 (RXF 393) of the same molecule?
Answer: Its GI50 is 15.4 µM (inactive).

Question: What about the GI50 (NCI-H460) of the same molecule?
Answer: The GI50 was 35.5 µM (inactive).

Question: What about the GI50 (OVCAR-4) of the same molecule?
Answer: Its GI50 is 51.5 µM (inactive).

Question: And the GI50 (CAKI-1)?
Answer: The GI50 was 31 µM (inactive).

Question: And the GI50 (UO-31)?
Answer: Its GI50 is 39 µM (inactive).

Question: And the GI50 (SF-539)?
Answer: The GI50 was 30.2 µM (inactive).

Question: And the GI50 (SF-268)?
Answer: The GI50 was 73.8 µM (inactive).

Question: What about the GI50 (A498) of the same molecule?
Answer: The GI50 was 19.8 µM (inactive).

Question: What about the GI50 (OVCAR-3) of the same molecule?
Answer: The GI50 was 33.3 µM (inactive).

Question: What about the GI50 (SK-MEL-5) of the same molecule?
Answer: The GI50 was 43.6 µM (inactive).

Question: And the GI50 (NCI-H23)?
Answer: Its GI50 is 56 µM (inactive).

Question: And the GI50 (NCI/ADR-RES)?
Answer: The GI50 was 38.5 µM (inactive).

Question: And the GI50 (MCF7)?
Answer: The GI50 was 27 µM (inactive).

Question: What about the GI50 (IGROV-1) of the same molecule?
Answer: Its GI50 is > 100 µM (inactive).

Question: And the GI50 (SN12C)?
Answer: The GI50 was 45.1 µM (inactive).

Question: What about the GI50 (SF-295) of the same molecule?
Answer: Its GI50 is 31.7 µM (inactive).

Question: And the GI50 (RPMI-8226)?
Answer: The GI50 was 21.1 µM (inactive).

Question: And the GI50 (UACC-257)?
Answer: Its GI50 is 48.2 µM (inactive).

Question: What about the GI50 (TK-10) of the same molecule?
Answer: The GI50 was 59.2 µM (inactive).

Question: What about the GI50 (HOP-62) of the same molecule?
Answer: The GI50 was 55.1 µM (inactive).

Question: What about the GI50 (ACHN) of the same molecule?
Answer: Its GI50 is 38.8 µM (inactive).

Question: What about the GI50 (786-0) of the same molecule?
Answer: The GI50 was 38.2 µM (inactive).

Question: And the GI50 (CCRF-CEM)?
Answer: The GI50 was 30.4 µM (inactive).

Question: And the GI50 (OVCAR-5)?
Answer: Its GI50 is > 100 µM (inactive).

Question: And the GI50 (SW-620)?
Answer: The GI50 was 66.1 µM (inactive).

Question: And the GI50 (EKVX)?
Answer: Its GI50 is 45.6 µM (inactive).

Question: And the GI50 (HT-29)?
Answer: The GI50 was 33.7 µM (inactive).

Question: And the GI50 (BT-549)?
Answer: Its GI50 is 49.3 µM (inactive).

Question: What about the GI50 (OVCAR-8) of the same molecule?
Answer: Its GI50 is 49.3 µM (inactive).

Question: What about the GI50 (SK-MEL-28) of the same molecule?
Answer: Its GI50 is 70.1 µM (inactive).

Question: What about the GI50 (SNB-19) of the same molecule?
Answer: The GI50 was 55.8 µM (inactive).

Question: What about the GI50 (LOX IMVI) of the same molecule?
Answer: Its GI50 is 35.8 µM (inactive).

Question: And the GI50 (SK-OV-3)?
Answer: The GI50 was > 100 µM (inactive).

Question: And the GI50 (KM12)?
Answer: The GI50 was 33.7 µM (inactive).

Question: And the GI50 (A549)?
Answer: Its GI50 is 46.6 µM (inactive).

Question: And the GI50 (HCC 2998)?
Answer: Its GI50 is 42.5 µM (inactive).

Question: What about the GI50 (HL-60) of the same molecule?
Answer: The GI50 was 20.1 µM (inactive).

Question: And the GI50 (Malme-3M)?
Answer: Its GI50 is 20 µM (inactive).

Question: What about the GI50 (DU-145) of the same molecule?
Answer: Its GI50 is > 100 µM (inactive).

Question: And the GI50 (T47D)?
Answer: The GI50 was 63.8 µM (inactive).

Question: What about the GI50 (MDA-N) of the same molecule?
Answer: The GI50 was 37.8 µM (inactive).

Question: What about the GI50 (COLO 205) of the same molecule?
Answer: The GI50 was 48.5 µM (inactive).

Question: What about the GI50 (MOLT-4) of the same molecule?
Answer: Its GI50 is 28.2 µM (inactive).

Question: What about the GI50 (SNB-75) of the same molecule?
Answer: Its GI50 is 51.5 µM (inactive).

Question: What about the GI50 (K562) of the same molecule?
Answer: The GI50 was 41.7 µM (inactive).

Question: And the GI50 (UACC-62)?
Answer: Its GI50 is 87.9 µM (inactive).

Question: And the GI50 (MDA-MB-435)?
Answer: Its GI50 is 45.6 µM (inactive).

Question: What about the GI50 (MDA-MB-231) of the same molecule?
Answer: The GI50 was 15.9 µM (inactive).

Question: And the GI50 (HCT-116)?
Answer: The GI50 was 43.7 µM (inactive).

Question: And the GI50 (HCT-15)?
Answer: Its GI50 is 46.3 µM.

Question: And the GI50 (SR)?
Answer: Its GI50 is 42.9 µM (inactive).

Question: What about the GI50 (U-251) of the same molecule?
Answer: Its GI50 is 67.8 µM (inactive).

From ChEMBL document CHEMBL1201862, “PubChem BioAssay data set” (2004)
